We go through 1 compound from paper PMC7958344, “Development of Novel Inhibitors Targeting the D-Box of the DNA Binding Domain of Androgen Receptor” (International Journal of Molecular Sciences, 2021).

This data set in a line: Metabolic stability in human microsomes. The following applies: microsomal stability, Table 1, read-out: Half-Life. It is filed as in vitro ADME. From the text: We then tested the metabolic stability of these molecules using human microsomes. […] This could explain the lower potency of this compound in cell growth assays, as it is metabolized quickly in the media.

The term half-life denotes the time in which the quantity being followed falls by half. In the case of `CNC(=O)c1ccc(N2C(=S)N(c3ccc(C#N)c(C(F)(F)F)c3)C(=O)C2(C)C)cc1F` [Enzalutamide, reference compound], the half-life is above 16.7 h.
